Literature values, collected in patent publication US20220378857A1, “COMPOSITION FOR THE CARDIOVASCULAR RISK REDUCTION” (NEILOS S.R.L., priority 2019, published 2022).
Like-named read-outs stand apart in the source and are kept apart here.

[1] = 7.5 mg/die of active principle for 12 weeks
[2] = 11.4 mg/die of monacolin for 8 weeks

In the case of CC[C@H](C)C(=O)O[C@H]1C[C@@H](C)C=C2C=C[C@H](C)[C@H](CC[C@@H]3C[C@@H](O)CC(=O)O3)[C@H]21 [monacolin, monacolin k], the “reduction in the levels of LDL cholesterol” value [1] is given as 22%, the “reduction in the levels of total cholesterol” value [1] is given as 16% and the “reduction in the levels of LDL cholesterol” value [2] is given as 26%. The “reduction in the levels of total cholesterol” value [2] was 20%.
